Data on twelve compounds can be found in ChEMBL document CHEMBL1201862, “PubChem BioAssay data set” (2004).

Test systems include SK-OV-3; NCI-H522; OVCAR-5; HOP-18; SK-MEL-5; KM-20L2; KM12; SNB-19; SNB-78; A498; K562; IGROV-1; SK-MEL-2; LXFL 529; Malme-3M; SF-268; HCC 2998.
What all share (assay): growth of human tumour cells (NCI), 48 h

SMILES strings stand for the structures.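 Growth conditions: 96-well plates. Treatment: test compound, 48 hours, 5 concentrations. Analysis: linear interpolation between bracketing concentrations; unreached endpoints set to highest concentration. Abbreviation: GI50, concentration required for 50% inhibition of growth.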 Activity calls are given as the source filed them. No stated cut-off is given here; in the data, active = GI50 up to about 1.1 µM and inactive = higher.

In the case of `CCOC(=O)c1cnc2c(ccc3ncccc32)c1OCC`, the GI50 in the experiment with SK-OV-3, in the experiment with NCI-H522, in the experiment on OVCAR-5, in the experiment with HOP-18, in the experiment on SK-MEL-5 and in the experiment on KM-20L2 was > 100 µM (inactive) throughout. In addition, the GI50 with KM12, in the experiment on SNB-19, in the experiment with SNB-78, in the experiment on A498, in the experiment on K562 and in the experiment on IGROV-1 was > 100 µM (inactive) in each case. Also, the GI50 in the experiment with SK-MEL-2, in the experiment on LXFL 529, in the experiment on Malme-3M, in the experiment with SF-268 and in the experiment on HCC 2998 was > 100 µM (inactive) in each case.

With `COC(=O)C(C(=O)OC)C1CCCC(=O)C1` (configuration not stated), the GI50 with SK-OV-3, in the experiment with OVCAR-5, in the experiment with HOP-18, in the experiment on SK-MEL-5, in the experiment on KM-20L2 and in the experiment with KM12 was > 100 µM (inactive) in each case. For the same compound, the GI50 in the experiment on SNB-19 was > 100 µM (inactive); in the experiment with SNB-78, > 100 µM (inactive); with A498, > 100 µM (inactive); in the experiment on K562 it was > 100 µM (inactive); in the experiment with IGROV-1, > 100 µM (inactive); with SK-MEL-2 it was < 0.01 µM (active). Also, the GI50 in the experiment on LXFL 529, in the experiment with Malme-3M, in the experiment on SF-268 and with HCC 2998 was > 100 µM (inactive) each time.

Take `NC1=NC2=C(CCCC2)C(c2cccs2)S1` (configuration not stated): the GI50 was > 100 µM (inactive) in the experiment on SK-OV-3; 27.9 µM (inactive) in the experiment on NCI-H522; > 100 µM (inactive) in the experiment with OVCAR-5; 33.5 µM (inactive) in the experiment with HOP-18; 54.5 µM (inactive) in the experiment on SK-MEL-5; > 100 µM (inactive) with KM-20L2. In addition, the GI50 in the experiment with KM12 was > 100 µM (inactive); in the experiment with SNB-19, > 100 µM (inactive); in the experiment with SNB-78 it was > 100 µM (inactive); in the experiment with A498, 72.6 µM (inactive); with K562, 56.9 µM (inactive); with IGROV-1 it was > 100 µM (inactive). Besides, the GI50 in the experiment on SK-MEL-2 is > 100 µM (inactive); in the experiment with LXFL 529 it was > 100 µM (inactive); with Malme-3M, 92.9 µM (inactive); with SF-268, 95.1 µM (inactive); in the experiment with HCC 2998 it was > 100 µM (inactive).

Regarding `CCCC1C(=O)CCc2c(OC)ccc(OC)c21` (configuration not stated), the GI50 in the experiment with SK-OV-3 was > 100 µM (inactive); with OVCAR-5, > 100 µM (inactive); in the experiment with HOP-18, 2.61 µM (inactive); with SK-MEL-5, > 100 µM (inactive); in the experiment on KM-20L2 it was > 100 µM (inactive); in the experiment with KM12, > 100 µM (inactive). Also, the GI50 in the experiment with SNB-19 is 99.8 µM (inactive); with SNB-78, > 100 µM (inactive); with A498, > 100 µM (inactive); in the experiment with K562, 59 µM (inactive); in the experiment on IGROV-1 it was > 100 µM (inactive); in the experiment with SK-MEL-2, > 100 µM (inactive). Further, the GI50 in the experiment with LXFL 529 was > 100 µM (inactive); in the experiment with Malme-3M it was > 100 µM (inactive); with SF-268, 91.8 µM (inactive); with HCC 2998 it was > 100 µM (inactive).

On to `Cc1cc(C)nc(NS(=O)(=O)c2ccc(NC(=O)c3cccc4c(=O)c5ccccc5[nH]c34)cc2)n1`, for which the GI50 was 0.18 µM (active) with SK-OV-3; 13.1 µM (inactive) in the experiment with NCI-H522; > 10 µM (inactive) in the experiment on OVCAR-5; 18.5 µM (inactive) in the experiment on HOP-18; 11.7 µM (inactive) in the experiment with SK-MEL-5; 19.5 µM (inactive) in the experiment on KM-20L2. Besides, the GI50 was 17 µM (inactive) in the experiment on KM12; 27.2 µM (inactive) with SNB-19; 21.3 µM (inactive) in the experiment with SNB-78; 18.2 µM (inactive) in the experiment on A498; 18.6 µM (inactive) in the experiment with K562; 26.1 µM (inactive) in the experiment with IGROV-1. In addition, the GI50 is > 10 µM (inactive) in the experiment on SK-MEL-2; 14.3 µM (inactive) in the experiment with LXFL 529; 17.9 µM (inactive) with Malme-3M; 21.8 µM (inactive) in the experiment on SF-268; 16.7 µM (inactive) with HCC 2998.

As for `O=C1C2=C(CC3C(C2)C3(Br)Br)C(=O)C2=C1CC1C(C2)C1(Br)Br` (configuration not stated), the GI50 with SK-OV-3 is > 100 µM (inactive); in the experiment with NCI-H522 it was 34.6 µM (inactive); in the experiment on OVCAR-5, > 100 µM (inactive); in the experiment on HOP-18, > 100 µM (inactive); with SK-MEL-5, > 100 µM (inactive); with KM-20L2, > 100 µM (inactive). Also, the GI50 with KM12, in the experiment on SNB-19, in the experiment on SNB-78, in the experiment with A498, in the experiment on K562 and in the experiment on IGROV-1 was > 100 µM (inactive) each time. In addition, the GI50 in the experiment with SK-MEL-2, with LXFL 529, in the experiment with Malme-3M, with SF-268 and in the experiment with HCC 2998 was > 100 µM (inactive) throughout.

Take `CSc1ccc(-c2cn3ccsc3n2)c(O)c1`: the GI50 in the experiment with SK-OV-3 was > 82.4 µM (inactive); in the experiment with NCI-H522, 37.2 µM (inactive); in the experiment with OVCAR-5 it was > 92.9 µM (inactive); in the experiment with HOP-18, > 76.6 µM (inactive); with SK-MEL-5 it was 41 µM (inactive); with KM-20L2 it was > 65.2 µM (inactive). In addition, the GI50 in the experiment with KM12 is > 56.5 µM (inactive); in the experiment with SNB-19 it was > 61.5 µM (inactive); with SNB-78, 42.3 µM (inactive); with A498, > 86.3 µM (inactive); in the experiment on K562 it was 26.4 µM (inactive); with IGROV-1, > 100 µM (inactive). For the same compound, the GI50 in the experiment with SK-MEL-2 was > 85.3 µM (inactive); in the experiment with LXFL 529 it was > 54.5 µM (inactive); in the experiment with Malme-3M it was > 61.1 µM (inactive); in the experiment on SF-268, 36.7 µM (inactive); in the experiment with HCC 2998, > 60 µM (inactive).

As to `NC1=NCCC1(c1ccccc1)c1ccccn1` (configuration not stated), the GI50 in the experiment on SK-OV-3, in the experiment with NCI-H522, with OVCAR-5, with HOP-18, in the experiment on SK-MEL-5 and in the experiment with KM-20L2 was > 100 µM (inactive) in each case. The GI50 with KM12, with SNB-19, in the experiment with SNB-78, with A498, in the experiment on K562 and in the experiment with IGROV-1 was > 100 µM (inactive) in each case. Moreover, the GI50 in the experiment with SK-MEL-2, with LXFL 529, in the experiment with Malme-3M, with SF-268 and in the experiment with HCC 2998 was > 100 µM (inactive) each time.

As to `CC1=C(c2cc(C(=O)Nc3ccc(Cl)cc3)nc(S)n2)Sc2ccccc2N1`, the GI50 in the experiment with SK-OV-3, in the experiment on NCI-H522, in the experiment on OVCAR-5, in the experiment on HOP-18, in the experiment with SK-MEL-5 and in the experiment on KM-20L2 was > 100 µM (inactive) each time. The GI50 in the experiment with KM12, in the experiment on SNB-19, with SNB-78, in the experiment with A498, with K562 and in the experiment with IGROV-1 was > 100 µM (inactive) in each case. Moreover, the GI50 with SK-MEL-2, in the experiment with LXFL 529, in the experiment on Malme-3M, with SF-268 and with HCC 2998 was > 100 µM (inactive) in each case.

Take `CC(N)C(C)c1ccccc1` (configuration not stated): the GI50 in the experiment with SK-OV-3, in the experiment on NCI-H522, in the experiment with OVCAR-5, in the experiment with HOP-18, in the experiment on SK-MEL-5 and in the experiment with KM-20L2 was > 100 µM (inactive) each time. In addition, the GI50 in the experiment on KM12, in the experiment with SNB-19, with SNB-78, in the experiment on A498, in the experiment with K562 and in the experiment with IGROV-1 was > 100 µM (inactive) in each case. Besides, the GI50 in the experiment with SK-MEL-2, in the experiment with LXFL 529, in the experiment on Malme-3M, in the experiment on SF-268 and in the experiment on HCC 2998 was > 100 µM (inactive) throughout.

`Nc1c(-c2ccc(Cl)cc2)[n+]([O-])c2ccccc2[n+]1[O-]`: the GI50 with SK-OV-3 was > 100 µM (inactive); with NCI-H522, 25.3 µM (inactive); in the experiment on OVCAR-5 it was > 100 µM (inactive); in the experiment with HOP-18 it was 20.7 µM (inactive); in the experiment with SK-MEL-5 it was > 100 µM (inactive); with KM-20L2 it was > 100 µM (inactive). The GI50 with KM12 was > 100 µM (inactive); with SNB-19, 34.8 µM (inactive); in the experiment with SNB-78 it was > 100 µM (inactive); in the experiment on A498 it was 95.3 µM (inactive); with K562, 49.3 µM (inactive); in the experiment on IGROV-1 it was > 100 µM (inactive). In addition, the GI50 is > 100 µM (inactive) with SK-MEL-2; 52.7 µM (inactive) in the experiment with LXFL 529; > 100 µM (inactive) in the experiment on Malme-3M; 59.8 µM (inactive) with SF-268; 49.9 µM (inactive) with HCC 2998.

With `Cc1cc(NS(=O)(=O)c2ccc(NC(=O)c3cccc4c(Nc5ccc(S(=O)(=O)Nc6cc(C)on6)cc5)c5ccc(Cl)cc5nc34)cc2)no1`, the GI50 was > 100 µM (inactive) in the experiment with SK-OV-3; 31.4 µM (inactive) in the experiment with NCI-H522; > 100 µM (inactive) with OVCAR-5; 14.9 µM (inactive) with HOP-18; 56.4 µM (inactive) with SK-MEL-5; 74.1 µM (inactive) in the experiment with KM-20L2. Also, the GI50 with KM12 was 69.2 µM (inactive); in the experiment on SNB-19, 28.1 µM (inactive); with SNB-78, 91.6 µM (inactive); in the experiment with A498, 55 µM (inactive); in the experiment on K562, 40.8 µM (inactive); with IGROV-1 it was 59.4 µM (inactive). Also, the GI50 was > 100 µM (inactive) in the experiment with SK-MEL-2; 43.2 µM (inactive) in the experiment with LXFL 529; > 100 µM (inactive) in the experiment on Malme-3M; 34.5 µM (inactive) in the experiment on SF-268; 56 µM (inactive) with HCC 2998.
